Where “and” joins values, the source holds several entries; their conditions need not be identical. Identical values can stand only once. Inconclusive results and toxic doses are left out.

This assay relates to P388 leukemia ip, CD2F1 mice, survival T/C. The experiment in a line: NCI In Vivo Anticancer Drug Screen. Data for tumor model P388 Leukemia (intraperitoneal) in CD2F1 (CDF1) mice. As to conditions: endpoint: median survival time, higher = longer survival. The method in brief: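 Mice carrying the transplanted tumor received test compound or vehicle. Survival was recorded in each group, and the value is the treated-group measurement divided by that of the vehicle-treated control group.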

Setting [1] is: dose: 50.0 mg/kg/injection, schedule: Q01DX009 (ip), vehicle: saline with Tween-80.
Setting [2] is: dose: 100.0 mg/kg/injection, schedule: Q01DX009 (ip), vehicle: saline with Tween-80.
[3] abbreviates: dose: 200.0 mg/kg/injection, schedule: Q01DX009 (ip), vehicle: saline with Tween-80.
[4] abbreviates: dose: 400.0 mg/kg/injection, schedule: Q01DX009 (ip), vehicle: saline with Tween-80.
Where [5] appears, read: dose: 60.0 mg/kg/injection, schedule: Q01DX005 (ip), vehicle: saline with Tween-80.
[6] abbreviates: dose: 120.0 mg/kg/injection, schedule: Q01DX005 (ip), vehicle: saline with Tween-80.
[7] abbreviates: dose: 240.0 mg/kg/injection, schedule: Q01DX005 (ip), vehicle: saline with Tween-80.
Where [8] appears, read: dose: 50.0 mg/kg/injection, schedule: Q01DX009 (ip), vehicle: saline.
Where [9] appears, read: dose: 100.0 mg/kg/injection, schedule: Q01DX009 (ip), vehicle: saline.
[10] abbreviates: dose: 200.0 mg/kg/injection, schedule: Q01DX009 (ip), vehicle: saline.

Consider `CCOC(=S)SCC(=O)C1(O)Cc2c(O)c3c(c(O)c2C(OC2CC(N)C(O)C(C)O2)C1)C(=O)c1c(OC)cccc1C3=O` (stereo not drawn), for which the T/C is 120 % of control (dose: 1.56 mg/kg/injection, schedule: Q01DX009 (ip), vehicle: other); 123 % of control (dose: 3.13 mg/kg/injection, schedule: Q01DX009 (ip), vehicle: other); 121 % of control (dose: 37.5 mg/kg/injection, schedule: Q04DX003 (ip), vehicle: other); 94 % of control (dose: 75.0 mg/kg/injection, schedule: Q04DX003 (ip), vehicle: other); 99 % of control (dose: 150.0 mg/kg/injection, schedule: Q04DX003 (ip), vehicle: other).
For `CC(C)(C)C1CCC2(N3CCOCC3)C(C#N)CC2C1` (stereo not drawn), the T/C was 105 % of control (dose: 25.0 mg/kg/injection, schedule: Q01DX005 (ip), vehicle: Klucel (hydroxypropylcellulose) (HPC)); 102 % of control (dose: 50.0 mg/kg/injection, schedule: Q01DX005 (ip), vehicle: Klucel (hydroxypropylcellulose) (HPC)); 105 % of control (dose: 50.0 mg/kg/injection, schedule: Q01DX005 (ip), vehicle: saline + Tween-80 + alcohol); 103 % of control (dose: 100.0 mg/kg/injection, schedule: Q01DX005 (ip), vehicle: Klucel (hydroxypropylcellulose) (HPC)); 110 % of control (dose: 100.0 mg/kg/injection, schedule: Q01DX005 (ip), vehicle: saline + Tween-80 + alcohol); 97 % of control (dose: 200.0 mg/kg/injection, schedule: Q01DX005 (ip), vehicle: Klucel (hydroxypropylcellulose) (HPC)). Also, the T/C (dose: 200.0 mg/kg/injection, schedule: Q01DX005 (ip), vehicle: saline + Tween-80 + alcohol) was 94 % of control.
As to `COc1cc(CO)c(CO)cc1OC`, the T/C by setting is: (dose: 0.75 mg/kg/injection, schedule: Q01DX005 (ip), vehicle: saline) 93 % of control; (dose: 1.5 mg/kg/injection, schedule: Q01DX005 (ip), vehicle: saline) 95 % of control; (dose: 3.0 mg/kg/injection, schedule: Q01DX005 (ip), vehicle: saline) 93 % of control; (dose: 3.12 mg/kg/injection, schedule: Q01DX005 (ip), vehicle: saline) 98 % of control.
On to `S=C1SCN(C2CCCCCCCCCCC2)CN1C1CCCCCCCCCCC1`, for which the T/C was 94 % of control under setting [1], 93 % of control under setting [2], 97 % of control under setting [3] and 101 % of control under setting [4].
With `c1cc(OCCOc2cccc3ocnc23)c2ncoc2c1`, the T/C under setting [5] was 98 % of control and 92 % of control; the T/C under setting [6] is 99 % of control; the T/C under setting [7] is 86 % of control and 89 % of control.
Turning to `Nc1ccccc1SC1CCCCC1O` (stereo not drawn), the T/C by setting is: (dose: 25.0 mg/kg/injection, schedule: Q01DX009 (ip), vehicle: saline) 101 % of control; under setting [8], 97 % of control; under setting [9], 97 % of control; under setting [10], 102 % of control.
On to `CCCCCCC(=O)/C=C/c1cccc(OCOC)c1`, for which the T/C under setting [1] is 87 % of control, the T/C under setting [2] is 113 % of control and the T/C under setting [3] is 103 % of control.
Regarding `C[C@@]12CCCC[C@@H]1Nc1ccccc12`, the T/C is, setting by setting: under setting [5], 98 % of control; under setting [6], 100 % of control; under setting [7], 97 % of control.
Turning to `NC(=NCc1ccccc1)c1ccc(N=C(N)c2ccc(C(N)=Nc3ccc(C(N)=NCc4ccccc4)cc3)cc2)cc1`, the T/C is 118 % of control (dose: 5.0 mg/kg/injection, schedule: Q01DX009 (ip), vehicle: saline sonified); 109 % of control (dose: 6.6 mg/kg/injection, schedule: Q01DX009 (ip), vehicle: saline); 122 % of control (dose: 10.0 mg/kg/injection, schedule: Q01DX009 (ip), vehicle: saline); 104 % of control (dose: 10.0 mg/kg/injection, schedule: Q04DX003 (ip), vehicle: saline with Tween-80); 95 % of control (dose: 20.0 mg/kg/injection, schedule: Q04DX003 (ip), vehicle: saline with Tween-80).
Consider `COc1cccc2c1C(=O)c1c(O)c3c(c(O)c1C2=O)CC(O)(/C(C)=N/NC(=O)CCCC(=O)N/N=C(\C)C1(O)Cc2c(O)c4c(c(O)c2C(OC2CC(N)C(O)C(C)O2)C1)C(=O)c1c(OC)cccc1C4=O)CC3OC1CC(N)C(O)C(C)O1` (stereo not drawn), for which the T/C is 105 % of control (dose: 0.2 mg/kg/injection, schedule: Q01DX009 (ip), vehicle: water); 90 % of control (dose: 0.39 mg/kg/injection, schedule: Q01DX009 (ip), vehicle: water); 150 % of control (dose: 0.78 mg/kg/injection, schedule: Q01DX009 (ip), vehicle: water); 188 % of control (dose: 1.56 mg/kg/injection, schedule: Q01DX009 (ip), vehicle: water); 167 % of control (dose: 3.13 mg/kg/injection, schedule: Q01DX009 (ip), vehicle: water).
For `O=C(NCc1ccccc1)c1ccc([N+](=O)[O-])cc1`, the T/C runs as follows: under setting [1], 87 % of control; under setting [2], 95 % of control; under setting [3], 95 % of control; under setting [4], 91 % of control.
For `CCOC(=O)C(C)OC1CCCCO1` (stereo not drawn), the T/C runs as follows: (dose: 50.0 mg/kg/injection, schedule: Q01DX009 (ip), vehicle: other) 105 % of control; (dose: 100.0 mg/kg/injection, schedule: Q01DX009 (ip), vehicle: other) 95 % of control; (dose: 200.0 mg/kg/injection, schedule: Q01DX009 (ip), vehicle: other) 96 % of control.
Take `CCOc1ccc2c(N/N=C/c3ccc(N(CCCl)CCCl)cc3)cc(C)nc2c1`: the T/C is 96 % of control (dose: 12.5 mg/kg/injection, schedule: Q01DX009 (ip), vehicle: saline with Tween-80); 94 % of control (dose: 25.0 mg/kg/injection, schedule: Q01DX009 (ip), vehicle: saline with Tween-80); 99 % of control and 88 % of control under setting [1].
For `CCOC(=O)CS(=O)(=O)CCCCCCS(=O)(=O)CC(=O)OCC`, the T/C reads like this: under setting [8], 103 % of control; under setting [9], 91 % of control; under setting [10], 94 % of control.
With `Cc1ccc(-c2cn3c(n2)SCC3)cc1`, the T/C by setting is: (dose: 100.0 mg/kg/injection, schedule: Q04DX003 (ip), vehicle: Klucel (hydroxypropylcellulose) (HPC)) 99 % of control; (dose: 200.0 mg/kg/injection, schedule: Q04DX003 (ip), vehicle: Klucel (hydroxypropylcellulose) (HPC)) 106 % of control; (dose: 400.0 mg/kg/injection, schedule: Q04DX003 (ip), vehicle: Klucel (hydroxypropylcellulose) (HPC)) 99 % of control.
For `Cc1ccc(S(=O)(=O)OC2C=CC(=O)C(OC(=O)c3ccccc3)C2OC(=O)c2ccccc2)cc1` (stereo not drawn), the T/C runs as follows: (dose: 50.0 mg/kg/injection, schedule: Q01DX001 (ip), vehicle: saline with Tween-80) 102 % of control; (dose: 100.0 mg/kg/injection, schedule: Q01DX001 (ip), vehicle: saline with Tween-80) 100 % of control; (dose: 200.0 mg/kg/injection, schedule: Q01DX001 (ip), vehicle: saline with Tween-80) 91 % of control; (dose: 400.0 mg/kg/injection, schedule: Q01DX001 (ip), vehicle: saline with Tween-80) 98 % of control.

The record behind these values is PubChem BioAssay AID330 (DTP/NCI, 2004).
